Experimental data taken from PubChem BioAssay AID588624 (NMMLSC, 2011).
Active and inactive are the calls of the source.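 The calls were made as follows: active = half-maximal concentration at most 10 µM with response span of at least 30% and a trustworthy curve fit; inactive = the rest.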

target: Cell division control protein 42 homolog (Homo sapiens) (UniProt P60953); assay: constitutively active Cdc42 guanine nucleotide binding blockers – biochemical, activated mutant, bead multiplex, flow cytometry, round 2, selectivity assay for Rab7 inhibitor project, SAR follow-up (AID 588624); conditions: GST-Cdc42 act beads, Bodipy-GTP binding
Sequence (P60953 whole entry, looked up): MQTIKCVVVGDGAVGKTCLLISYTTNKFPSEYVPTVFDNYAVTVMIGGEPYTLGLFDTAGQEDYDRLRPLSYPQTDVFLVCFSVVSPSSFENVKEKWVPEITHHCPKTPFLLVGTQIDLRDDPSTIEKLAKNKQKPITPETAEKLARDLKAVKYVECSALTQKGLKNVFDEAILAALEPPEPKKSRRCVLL

Compound | EC50 [nM]
CC(C)(C)C1Cc2c(sc(NC(=S)NC(=O)c3ccccc3)c2C(=O)O)CO1 (centres undefined) | 935
CC1(C)Cc2c(sc(NC(=S)NC(=O)C3CCCCC3)c2C(=O)O)CO1 | 3130
O=C(NC(=S)Nc1sc2c(c1C(=O)O)CCOC2)c1ccccc1 | 12500
CC1(C)Cc2c(sc(NC(=S)NC(=O)c3ccc(F)cc3)c2C(=O)O)CO1 | 692
CC1(C)Cc2c(sc(NC(=S)NC(=O)c3ccc(Br)cc3)c2C(=O)O)CO1 | 32100
COc1cccc(C(=O)NC(=S)Nc2sc3c(c2C(=O)O)CC(C)(C)OC3)c1 | 1310
CC1(C)Cc2c(sc(NC(=S)NC(=O)c3ccccc3Br)c2C(=O)O)CO1 | 29500

The remaining lines, values ahead:

EC50 [nM] | Compound
7980 | CC1Cc2c(sc(NC(=S)NC(=O)c3ccccc3)c2C(=O)O)CO1 (centres undefined)
1350 | Cc1ccccc1C(=O)NC(=S)Nc1sc2c(c1C(=O)O)CC(C)(C)OC2
326 | CC1(C)Cc2c(sc(NC(=S)NC(=O)c3ccco3)c2C(=O)O)CO1
40600 | CC1(C)Cc2c(sc(NC(=S)NC(=O)c3cccc(Br)c3)c2C(=O)O)CO1
2090 | CC1(C)Cc2c(sc(NC(=S)NC(=O)c3ccccc3F)c2C(=O)O)CO1
177 | CCC1(C)Cc2c(sc(NC(=S)NC(=O)c3ccccc3)c2C(=O)O)CO1 (centres undefined)
5830 | CC1(C)Cc2c(sc(NC(=S)NC(=O)c3cccc(F)c3)c2C(=O)O)CO1

same assay, conditions: GST-Cdc42 act beads, Bodipy-GTP binding, at 100 µM (top of the series)

Compound | percent response of GTP binding
O=C(NC(=S)Nc1sc2c(c1C(=O)O)CCOC2)c1ccccc1 | inactive
O=C(NC(=S)Nc1sc2c(c1C(=O)O)CC1(CCCC1)OC2)c1ccccc1 | inactive
COc1ccccc1C(=O)NC(=S)Nc1sc2c(c1C(=O)O)CC(C)(C)OC2 | inactive
CC1(C)Cc2c(sc(NC(=S)NC(=O)c3cccs3)c2C(=O)O)CO1 | inactive
CC1(C)Cc2c(sc(NC(=O)NC(=O)c3ccccc3)c2C(=O)O)CO1 | inactive

Other lines, results leading:

percent response of GTP binding | Compound
inactive | Cc1cccc(C(=O)NC(=S)Nc2sc3c(c2C(=O)O)CC(C)(C)OC3)c1
inactive | COc1ccc(C(=O)NC(=S)Nc2sc3c(c2C(=O)O)CC(C)(C)OC3)cc1
inactive | CC1(C)CCc2sc(NC(=S)NC(=O)c3ccccc3)c(C(=O)O)c2C1
inactive | CC1(C)Cc2c(sc(NC(=S)Nc3ccccc3)c2C(=O)O)CO1
inactive | Cc1ccc(C(=O)NC(=S)Nc2sc3c(c2C(=O)O)CC(C)(C)OC3)cc1
